Legend:
Test in all cases: Bliss excess, mean over the matrix (fraction); higher = more synergy
[1] = tested on: NCI-H23 (Lung Adenocarcinoma)
Outline: (§1)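 Bliss excess equals the observed combination effect minus the expected value EA + EB − EA·EB, where EA and EB are the effects of each agent alone. Combination Emax is the second-highest inhibition within the matrix. Inhibition was scaled from CellTiter-Glo 2.0 luminescence, with 0 set by vehicle wells and 1 by blank wells, after 72 hours of two-drug dosing of cells plated in 1536-well plates.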

[2] = tested on: SF539 (Glioblastoma)
Outline: as §1

[3] = tested on: PC-3_[JPC-3] (Lung Adenocarcinoma)
Outline: as §1

[4] = tested on: GB-1 (Glioblastoma)
Outline: as §1

[5] = tested on: SK-PN-DW (Other Solid Carcinomas)
Outline: as §1

[6] = tested on: WM793B (Melanoma)
Outline: as §1

[7] = tested on: WM278 (Melanoma)
Outline: as §1

[8] = tested on: LXF-289 (Lung Adenocarcinoma)
Outline: as §1

[9] = tested on: RERF-GC-1B (Gastric Carcinoma)
Outline: as §1

[10] = tested on: L-1236 (Hodgkin's Lymphoma)
Outline: as §1

[11] = tested on: IST-MES1 (Mesothelioma)
Outline: as §1

[12] = tested on: 23132-87 (Gastric Carcinoma)
Outline: as §1

[13] = tested on: A2058 (Melanoma)
Outline: as §1

[14] = tested on: HSC-39 (Gastric Carcinoma)
Outline: as §1

[15] = tested on: OVMIU (Ovarian Carcinoma)
Outline: as §1

[16] = tested on: HCT-15 (Colorectal Carcinoma)
Outline: as §1

[17] = tested on: SU-DHL-10 (B-Cell Non-Hodgkin's Lymphoma)
Outline: as §1

[18] = tested on: RCM-1 (Colorectal Carcinoma)
Outline: as §1

[19] = tested on: NCI-H2342 (Lung Adenocarcinoma)
Outline: as §1

[20] = tested on: SF268 (Low Grade Glioma)
Outline: as §1

SMILES | Bliss excess [1] | Bliss excess [2] | Bliss excess [3] | Bliss excess [4] | Bliss excess [5] | Bliss excess [6] | Bliss excess [7] | Bliss excess [8] | Bliss excess [9] | Bliss excess [10] | Bliss excess [11] | Bliss excess [12] | Bliss excess [13] | Bliss excess [14] | Bliss excess [15] | Bliss excess [16] | Bliss excess [17] | Bliss excess [18] | Bliss excess [19] | Bliss excess [20]
CN(CCO)CC[C@H](CSc1ccccc1)Nc1ccc(S(=O)(=O)NC(=O)c2ccc(N3CCC([C@@H](O)c4ccccc4-c4ccc(Cl)cc4)CC3)cc2)cc1S(=O)(=O)C(F)(F)F [AZD4320] + Cc1cc2ncnn2cc1Nc1ncc2c(n1)n(C1CCOCC1)c(=O)n2C [AZD7648] (first compound max 1 µM, 7x7, partner max 10 µM) | -0.0298 | 0.0095 | -0.0635 | -0.0225 | -0.0411 | -0.0234 | -0.0277 | -0.0326 | 0.0231 | -0.0299 | -0.042 | -0.0311 | -0.0231 | 0.0221 | -0.0652 | -0.0202 | 0.0212 | -0.0153 | -0.0475 | -0.0371
C[C@@H](c1ccc2nccn2c1)n1nnc2ncc(-c3cnn(C)c3)nc21 [Savolitinib] + Cc1c2c(nn1C)CSCc1cc(n(C)n1)CSc1cc(c3ccccc3c1)OCCCc1c(C(=O)O)n(C)c3c-2c(Cl)ccc13 [AZD5991] (first compound max 1 µM, 7x7, partner max 1 µM) | -0.0163 | -0.0337 | -0.0216 | -0.0495 | -0.0656 | -0.0658 | -0.0386 | 0.0178 | -0.0141 | -0.0017 | -0.0435 | 0.0014 | -0.0043 | -0.0133 | -0.0415 | 0.0013 | -0.0034 | -0.0451 | 0.0288 | -0.0595
COc1cccc(OCCCN)c1-c1cc(Nc2cnc(C#N)cn2)n[nH]1 [Prexasertib] + CCc1c2c(nc3ccc(O)cc13)-c1cc3c(c(=O)n1C2)COC(=O)[C@]3(O)CC [SN-38] (first compound max 1 µM, 7x7, partner max 0.3 µM) | -0.0001 | -0.0091 | -0.0729 | -0.0438 | -0.0672 | -0.0489 | -0.0479 | -0.0201 | 0.0318 | -0.0584 | -0.026 | -0.0307 | 0.123 | 0.0026 | -0.0921 | 0.051 | 0.035 | -0.0729 | -0.0703 | 0.0097
COc1nnc2ccc(N3CCC(c4ccc(OCCN5CCN(C)C(=O)[C@H]5C)cc4)CC3)nn12 [AZD5153] + Cc1c2c(nn1C)CSCc1cc(n(C)n1)CSc1cc(c3ccccc3c1)OCCCc1c(C(=O)O)n(C)c3c-2c(Cl)ccc13 [AZD5991] (first compound max 1 µM, 7x7, partner max 1 µM) | -0.086 | -0.0273 | -0.0149 | -0.0513 | 0.0472 | -0.0303 | -0.0929 | 0.0019 | 0.0602 | 0.0283 | -0.0031 | 0.0791 | 0.067 | 0.0135 | -0.0072 | -0.0709 | -0.03 | -0.0512 | 0.0192 | 0.0097
CN(C)CCCOc1ccc(-c2ccc3ncc4c(c3c2)n(C2CCOCC2)c(=O)n4C)cn1 [AZD0156] + C[C@@H]1COCCN1C2=NC(=NC(=C2)C3(CC3)[S@](=N)(=O)C)C4=C5C=CNC5=NC=C4 [AZD6738] (first compound max 1 µM, 7x7, partner max 10 µM) | -0.0218 | 0.0274 | -0.006 | -0.0132 | -0.075 | 0.0342 | -0.0332 | 0.0318 | 0.0249 | -0.0315 | -0.0679 | 0.0549 | -0.0135 | 0.0054 | -0.0072 | 0.0663 | 0.0699 | -0.0343 | -0.0487 | -0.0359
CN(C)CCCOc1ccc(-c2ccc3ncc4c(c3c2)n(C2CCOCC2)c(=O)n4C)cn1 [AZD0156] + CCN(CCO)CCCOc1ccc2c(Nc3cc(CC(=O)Nc4cccc(F)c4)[nH]n3)ncnc2c1 [AZD2811] (first compound max 1 µM, 7x7, partner max 1 µM) | -0.0119 | -0.0196 | -0.0524 | -0.034 | 0.0147 | 0.0212 | -0.0259 | 0.052 | 0.0292 | -0.0332 | -0.0439 | -0.025 | -0.0201 | -0.0113 | -0.0411 | 0.0156 | -0.0813 | -0.0241 | -0.054 | -0.0204
Cc1c2c(nn1C)CSCc1cc(n(C)n1)CSc1cc(c3ccccc3c1)OCCCc1c(C(=O)O)n(C)c3c-2c(Cl)ccc13 [AZD5991] + CCN(CCO)CCCOc1ccc2c(Nc3cc(CC(=O)Nc4cccc(F)c4)[nH]n3)ncnc2c1 [AZD2811] (first compound max 1 µM, 7x7, partner max 1 µM) | 0.0222 | 0.0184 | -0.0049 | -0.0318 | 0.0869 | 0.0264 | 0.0657 | 0.0912 | 0.014 | 0.0255 | -0.002 | -0.0075 | 0.114 | 0.0233 | -0.099 | 0.0432 | -0.0133 | -0.0249 | -0.0613 | 0.0835
CN(C)CCCOc1ccc(-c2ccc3ncc4c(c3c2)n(C2CCOCC2)c(=O)n4C)cn1 [AZD0156] + C=CCn1c(=O)c2cnc(Nc3ccc(N4CCN(C)CC4)cc3)nc2n1-c1cccc(C(C)(C)O)n1 [AZD1775] (first compound max 1 µM, partner max 1 µM) | -0.0406 | -0.0023 | -0.0018 | -0.0219 | -0.0282 | -0.0081 | -0.0331 | 0.0066 | -0.0318 | -0.0514 | -0.0624 | 0.0164 | -0.0313 | -0.0144 | -0.0113 | 0.0622 | -0.0088 | -0.0621 | -0.0612 | -0.0665
COc1nnc2ccc(N3CCC(c4ccc(OCCN5CCN(C)C(=O)[C@H]5C)cc4)CC3)nn12 [AZD5153] + C=CCn1c(=O)c2cnc(Nc3ccc(N4CCN(C)CC4)cc3)nc2n1-c1cccc(C(C)(C)O)n1 [AZD1775] (first compound max 1 µM, partner max 1 µM) | -0.027 | -0.0303 | -0.06 | 0.056 | -0.0722 | -0.0265 | -0.0364 | -0.0212 | -0.114 | -0.0138 | -0.0347 | 0.0309 | -0.0175 | -0.0516 | -0.0409 | -0.0738 | -0.0044 | -0.0498 | -0.0347 | 0.0037
CN(CCO)CC[C@H](CSc1ccccc1)Nc1ccc(S(=O)(=O)NC(=O)c2ccc(N3CCC([C@@H](O)c4ccccc4-c4ccc(Cl)cc4)CC3)cc2)cc1S(=O)(=O)C(F)(F)F [AZD4320] + C1CN(CCC1(C(=O)N[C@@H](CCO)C2=CC=C(C=C2)Cl)N)C3=NC=NC4=C3C=CN4 [Capivasertib] (first compound max 1 µM, 7x7, partner max 3 µM) | -0.0273 | -0.0352 | -0.0961 | -0.0274 | -0.0588 | -0.0384 | -0.0378 | -0.0904 | 0.0036 | -0.0476 | -0.0371 | -0.0483 | -0.032 | -0.0072 | -0.0691 | -0.0435 | 0.0129 | -0.0768 | -0.0259 | -0.0502
COc1cc2ncnc(Nc3ccc(F)c(Cl)c3)c2cc1OCCCN1CCOCC1 [Gefitinib] + CC(C)n1c(=O)n(C)c2cnc3cc(F)c(-c4ccc(OCCCN5CCCCC5)nc4)cc3c21 [AZD1390] (first compound max 10 µM, 7x7, partner max 0.3 µM) | -0.0466 | -0.0347 | -0.03 | -0.0815 | -0.0293 | -0.0816 | -0.0728 | -0.0717 | -0.092 | -0.0467 | -0.0524 | -0.025 | -0.0343 | 0.0185 | -0.0564 | -0.0533 | -0.0254 | -0.0395 | -0.052 | -0.0727
CN(C)CCCOc1ccc(-c2ccc3ncc4c(c3c2)n(C2CCOCC2)c(=O)n4C)cn1 [AZD0156] + O=C(c1cc(Cc2n[nH]c(=O)c3ccccc23)ccc1F)N1CCN(C(=O)C2CC2)CC1 [Olaparib] (first compound max 3 µM, partner max 3 µM) | 0.0049 | 0.133 | -0.0349 | 0.014 | 0.0158 | 0.0206 | 0.0011 | 0.092 | -0.0079 | -0.0602 | -0.0141 | 0.198 | 0.151 | 0.128 | 0.06 | 0.007 | 0.11 | 0.003 | -0.0504 | -0.0347
CN(CCO)CC[C@H](CSc1ccccc1)Nc1ccc(S(=O)(=O)NC(=O)c2ccc(N3CCC([C@@H](O)c4ccccc4-c4ccc(Cl)cc4)CC3)cc2)cc1S(=O)(=O)C(F)(F)F [AZD4320] + CCN(CCO)CCCOc1ccc2c(Nc3cc(CC(=O)Nc4cccc(F)c4)[nH]n3)ncnc2c1 [AZD2811] (first compound max 1 µM, 7x7, partner max 1 µM) | 0.0244 | 0.0862 | -0.0598 | -0.0189 | 0.0024 | 0.0038 | 0.0469 | -0.0532 | -0.0034 | -0.0263 | -0.0265 | -0.0339 | 0.0723 | -0.0338 | -0.0627 | -0.0189 | -0.0949 | -0.0207 | -0.036 | 0.0843
NC1(C(=O)N[C@@H](CCO)c2ccc(Cl)cc2)CCN(c2ncnc3[nH]ccc23)CC1 [Capivasertib] + COc1nnc2ccc(N3CCC(c4ccc(OCCN5CCN(C)C(=O)[C@H]5C)cc4)CC3)nn12 [AZD5153] (first compound max 10 µM, 7x7, partner max 1 µM) | -0.0038 | 0.0157 | -0.0186 | 0.0557 | -0.0003 | -0.0115 | 0.0078 | 0.0995 | 0.0375 | -0.0938 | -0.0264 | 0.0623 | 0.0597 | 0.0142 | 0.0026 | 0.0306 | -0.027 | 0.0153 | 0.0361 | 0.0881
